From PubChem BioAssay (NCI)
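All cell lines were grown in 96-well plates and treated with compound for 48 hours. Here, GI50 denotes the concentration required for 50% inhibition of growth. TGI: total growth inhibition.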

Legend:
Assay in all cases: growth of human tumour cells (NCI), 48 h
[1] = system: UO-31 renal
[2] = system: MDA-MB-231 breast
[3] = system: RPMI-8226 leukemia
[4] = system: EKVX NSCLC
[5] = system: 786-0 renal
[6] = system: SW-620 colon
[7] = system: U251 CNS
[8] = system: ACHN renal
[9] = system: SR leukemia
[10] = system: BT-549 breast
[11] = system: SNB-75 CNS
[12] = system: SF-268 CNS
[13] = system: UACC-62 melanoma
[14] = system: NCI-H522 lung
[15] = system: MDA-MB-435
[16] = system: DU-145 prostate
[17] = system: UACC-257 melanoma
[18] = system: HOP-62 NSCLC
[19] = system: OVCAR-8 ovarian
[20] = system: PC-3 prostate
[21] = system: CCRF-CEM leukemia
[22] = system: SK-MEL-5 melanoma
[23] = system: A498 renal
[24] = system: SK-MEL-2 melanoma
[25] = system: NCI-H460 lung
[26] = system: KM12 colon
[27] = system: NCI/ADR-RES ovarian
[28] = system: NCI-H23 lung
[29] = system: TK-10 renal
[30] = system: SF-295 CNS
[31] = system: T-47D breast
[32] = system: SK-OV-3 ovarian
[33] = system: M14 melanoma
[34] = system: IGROV1 ovarian
[35] = system: HCC-2998 colon
[36] = system: HT29 colon
[37] = system: MOLT-4 leukemia
[38] = system: SNB-19 CNS
[39] = system: COLO 205 colon
[40] = system: RXF 393 renal
[41] = system: SN12C renal
[42] = system: HS 578T breast
[43] = system: K-562 leukemia
[44] = system: HCT-15 colon
[45] = system: OVCAR-5 ovarian
[46] = system: CAKI-1 renal
[47] = system: SF-539 CNS
[48] = system: HCT-116 colon
[49] = system: NCI-H226 lung
[50] = system: HL-60(TB) leukemia
[51] = system: MCF7 breast
[52] = system: A549 NSCLC

SMILES: N#Cc1c(NC(=O)c2ccccc2C(F)(F)F)sc2c1CCC(=O)C2
- GI50 [1]: 490 nM
- TGI [1]: 1820 nM
- GI50 [2]: 2080 nM
- TGI [2]: 5430 nM
- GI50 [3]: 272 nM
- TGI [3]: 954 nM
- GI50 [4]: 2680 nM
- TGI [4]: 11400 nM
- GI50 [5]: 3250 nM
- TGI [5]: > 100000 nM
- GI50 [6]: 427 nM
- TGI [6]: 2520 nM
- GI50 [7]: 1240 nM
- TGI [7]: > 100000 nM
- GI50 [8]: 433 nM
- TGI [8]: 1480 nM
- GI50 [9]: 359 nM
- TGI [9]: 5820 nM
- GI50 [10]: 1090 nM
- TGI [10]: 8620 nM
- GI50 [11]: 1630 nM
- TGI [11]: 6100 nM
- GI50 [12]: 3310 nM
- TGI [12]: 34000 nM
- GI50 [13]: 1180 nM
- TGI [13]: 2960 nM
- GI50 [14]: 360 nM
- TGI [14]: 2580 nM
- GI50 [15]: 1970 nM
- TGI [15]: 5860 nM
- GI50 [16]: 4670 nM
- TGI [16]: > 100000 nM
- GI50 [17]: 2210 nM
- TGI [17]: 6480 nM
- GI50 [18]: 3120 nM
- TGI [18]: > 100000 nM
- GI50 [19]: 1680 nM
- TGI [19]: > 100000 nM
- GI50 [20]: 384 nM
- TGI [20]: 15600 nM
- GI50 [21]: 325 nM
- TGI [21]: 14900 nM
- GI50 [22]: 1650 nM
- TGI [22]: 3470 nM
- GI50 [23]: 10500 nM
- TGI [23]: 25000 nM
- GI50 [24]: 2650 nM
- TGI [24]: 7020 nM
- GI50 [25]: 3350 nM
- TGI [25]: 19000 nM
- GI50 [26]: 3440 nM
- TGI [26]: 13900 nM
- GI50 [27]: 1310 nM
- TGI [27]: 5180 nM
- GI50 [28]: 1040 nM
- TGI [28]: 9280 nM
- GI50 [29]: 1640 nM
- TGI [29]: 9830 nM
- GI50 [30]: 2580 nM
- TGI [30]: 7050 nM
- GI50 [31]: 374 nM
- TGI [31]: 3240 nM
- GI50 [32]: 4870 nM
- TGI [32]: 50400 nM
- GI50 [33]: 2090 nM
- TGI [33]: 9330 nM
- GI50 [34]: 2370 nM
- TGI [34]: 13100 nM
- GI50 [35]: 2910 nM
- TGI [35]: 11500 nM
- GI50 [36]: 771 nM
- TGI [36]: 9170 nM
- GI50 [37]: 1610 nM
- TGI [37]: 16700 nM
- GI50 [38]: 3370 nM
- TGI [38]: > 100000 nM
- GI50 [39]: 1870 nM
- TGI [39]: 3740 nM
- GI50 [40]: 1050 nM
- TGI [40]: 2800 nM
- GI50 [41]: 2500 nM
- TGI [41]: 15900 nM
- GI50 [42]: 1950 nM
- TGI [42]: 8360 nM
- GI50 [43]: 378 nM
- TGI [43]: 11300 nM
- GI50 [44]: 405 nM
- TGI [44]: 1850 nM
- GI50 [45]: 1480 nM
- TGI [45]: 3810 nM
- GI50 [46]: 785 nM
- TGI [46]: 2560 nM
- GI50 [47]: 480 nM
- TGI [47]: 1910 nM
- GI50 [48]: 363 nM
- TGI [48]: 4890 nM
- GI50 [49]: 2090 nM
- TGI [49]: 5940 nM
- GI50 [50]: 405 nM
- TGI [50]: 4020 nM
- GI50 [51]: 1390 nM
- TGI [51]: 10300 nM
- GI50 [52]: 3670 nM
- TGI [52]: 29200 nM
